Tests used:
COX-I = biological target: T1, COX-I (Homo sapiens, UniProt P23219); assay: Whole blood assay for COX-I (TXB2 production); assay type: cell-based; conditions: 1 hr at 37° C.
T1 construct: Fresh blood was collected by syringe without anticoagulants from volunteers with consent; from tissue; host or cells: fresh human whole blood from volunteers, no anticoagulant, left to clot
Method: [B] Inhibiting Activity Against COX-I and COX-II (Whole Blood Assay): (i) Test Method: Whole Blood Assay for COX-I
Fresh blood was collected by syringe without anticoagulants from volunteers with consent. The subjects had no apparent inflammatory conditions and had not taken any medication for at least 7 days prior to blood collection.
500 μl aliquots of human whole blood were immediately incubated with 2 μl of either dimethyl sulfoxide vehicle or a test compound at final concentrations for 1 hr at 37° C. to allow the blood to clot. Appropriate treatments (no incubation) were used as blanks. At the end of the incubation, 5 μl of 250 mM Indomethacin was added to stop the reaction. The blood was centrifuged at 6000×g for 5 min at 4° C. to obtain serum. A 100 μl aliquot of serum was mixed with 400 μl methanol for protein precipitation. The supernatant was obtained by centrifuging at 6000×g for 5 min at 4° C. and was assayed for TXB2 using an enzyme immunoassay kit according to the manufacturer's procedure. For a test compound, the results were expressed as percent inhibition of thromboxane B2(TXB2) production relative to control incubations containing dimethyl sulfoxide vehicle.
The data were analyzed by that a test compound at the indicated concentrations was changed log value and was applied simple linear regression. IC50 value was calculated by least squares method.

COX-II = biological target: T2, COX-II (Homo sapiens, UniProt P35354); assay: Whole blood assay for COX-II (LPS-induced PGE2 production); assay type: cell-based; conditions: lipopolysaccharide 24 hrs at 37° C.
T2 construct: lipopolysaccharide for 24 hrs at 37° C. for induction of COX-II; from tissue; host or cells: fresh heparinized human whole blood from volunteers, stimulated with LPS for 24 hrs
T2 sequence (P35354 18-604): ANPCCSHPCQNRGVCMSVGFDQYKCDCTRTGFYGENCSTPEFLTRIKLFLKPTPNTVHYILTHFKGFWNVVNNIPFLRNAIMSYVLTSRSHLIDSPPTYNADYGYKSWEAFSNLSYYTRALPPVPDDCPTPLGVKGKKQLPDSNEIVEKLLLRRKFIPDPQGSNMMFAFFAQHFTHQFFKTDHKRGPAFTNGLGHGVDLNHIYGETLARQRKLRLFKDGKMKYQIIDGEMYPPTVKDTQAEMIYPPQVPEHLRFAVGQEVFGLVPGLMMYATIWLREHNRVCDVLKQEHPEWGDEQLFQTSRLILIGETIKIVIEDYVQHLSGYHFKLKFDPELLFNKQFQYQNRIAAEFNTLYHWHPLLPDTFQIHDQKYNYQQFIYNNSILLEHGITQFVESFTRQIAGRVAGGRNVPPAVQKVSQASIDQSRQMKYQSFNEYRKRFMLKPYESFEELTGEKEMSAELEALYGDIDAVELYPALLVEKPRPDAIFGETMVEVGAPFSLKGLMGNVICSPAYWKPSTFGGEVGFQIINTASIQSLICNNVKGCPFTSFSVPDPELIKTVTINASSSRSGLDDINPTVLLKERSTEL
Method: Whole Blood Assay for COX-II
Fresh blood was collected in heparinized tubes by syringe from volunteers with consent. The subjects had no apparent inflammatory conditions and had not taken any medication for at least 7 days prior to blood collection.
500 μl aliquots of human whole blood were incubated with either 2 μl dimethyl sulfoxide vehicle or 2 μl of a test compound at final concentrations for 15 min at 37° C. This was followed by incubation of the blood with […] of 5 mg/ml lipopolysaccharide for 24 hrs at 37° C. for induction of COX-II. Appropriate PBS treatments (no LPS) were used as blanks. At the end of the incubation, the blood was centrifuged at 6000×g for 5 min at 4° C. to obtain plasma. A 100 μl aliquot of plasma was mixed with 400 μl methanol for protein precipitation. The supernatant was obtained by centrifuging at 6000×g for 5 min at 4° C. and was assayed for prostaglandin E2 (PGE2) using a radioimmunoassay kit after conversion of PGE2 to its methyl oximate derivative according to the manufacturer's procedure.
For a test compound, the results were expressed as percent inhibition of […] production relative to control incubations containing dimethyl sulfoxide vehicle. The data were analyzed by that a test compound at the indicated concentrations was changed log value and was applied simple linear regression. IC50 value was calculated by least squares method.

[1] = system: adjuvant arthritis in rats; assay: Analgesic activity: effect on adjuvant arthritis in rats (Randall-Selitto pain threshold); assay type: in vivo, Lewis rats; conditions: dose 3.2 mg/kg; ratio of threshold pressure of treated vs non-treated arthritic rats, 2 hrs after administration; ratio of 1.5 = effective dose

T1 sequence (P23219 24-599): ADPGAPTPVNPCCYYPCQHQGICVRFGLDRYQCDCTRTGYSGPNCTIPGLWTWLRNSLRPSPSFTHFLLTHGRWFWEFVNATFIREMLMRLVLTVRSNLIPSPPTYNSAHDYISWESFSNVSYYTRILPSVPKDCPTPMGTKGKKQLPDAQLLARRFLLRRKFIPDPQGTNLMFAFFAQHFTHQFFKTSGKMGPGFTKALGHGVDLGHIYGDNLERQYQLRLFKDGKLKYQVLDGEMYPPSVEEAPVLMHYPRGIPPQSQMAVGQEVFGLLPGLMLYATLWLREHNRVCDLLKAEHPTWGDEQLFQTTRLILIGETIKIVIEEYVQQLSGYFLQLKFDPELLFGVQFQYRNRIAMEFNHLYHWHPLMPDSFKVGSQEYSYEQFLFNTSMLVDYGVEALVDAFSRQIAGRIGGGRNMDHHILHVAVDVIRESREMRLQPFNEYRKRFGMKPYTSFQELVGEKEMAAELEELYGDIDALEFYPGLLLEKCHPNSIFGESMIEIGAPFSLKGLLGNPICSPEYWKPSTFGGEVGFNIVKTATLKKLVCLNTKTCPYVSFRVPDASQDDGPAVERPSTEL

Row | Compound | melting point [°C] | IC50 (COX-I) [µM] | IC50 (COX-II) [µM] | The coefficient of analgesic [1]
1 | COc1ccc(-c2nc(C3CC3)cn2-c2ccc(OC)cc2)cc1.Cl [Example 20, 4-Cyclopropyl-1-(4-methoxyphenyl)-2-(4-methoxyphenyl)-1H-imidazole hydrochloride] | 180 to 181 | < 0.01 | ≥ 0.1 | –
2 | COc1ccc(-c2nc(C#N)cn2-c2ccc(C#N)cc2)cc1 [Example 27, 4-Cyano-1-(4-cyanophenyl)-2-(4-methoxyphenyl)-1H-imidazole] | 185 to 186 | – | – | –
3 | COc1ccc(-c2nc(C(F)(F)F)cn2-c2ccc(O)cc2)cc1 [Example 62, 1-(4-Hydroxyphenyl)-2-(4-methoxyphenyl)-4-trifluoromethyl-1H-imidazole] | 215 to 216 | – | – | –
4 | COc1ccc(-c2nc(C(=O)O)cn2-c2ccc(OC)cc2)cc1 [Example 18, 4-Carboxy-1-(4-methoxyphenyl)-2-(4-methoxyphenyl)-1H-imidazole] | 102 to 105 | – | – | –
5 | CCOC(=O)c1cn(-c2ccc(OC)cc2)c(-c2ccc(OC)nc2)n1 [Example 41-2, 4-Ethoxycarbonyl-1-(4-methoxyphenyl)-2-(2-methoxy-5-pyridinyl)-1H-imidazole] | 135 to 137 | – | – | –
6 | COc1ccc(-c2nc(C(F)F)cn2-c2ccc(C#N)cc2)cc1 [Example 34, 1-(4-Cyanophenyl)-4-difluoromethyl-2-(4-methoxyphenyl)-1H-imidazole] | 131 to 132 | < 0.01 | ≥ 0.1 | –
7 | COc1ccc(-n2cc(C(F)F)nc2-c2ccc(OC)nc2)cc1 [Example 43, 4-Difluoromethyl-1-(4-methoxyphenyl)-2-(2-methoxy-5-pyridinyl)-1H-imidazole] | 106 to 107 | < 0.01 | ≥ 0.1 | >1.5
8 | COc1ccc(-c2nc(C(F)F)cn2-c2ccc(O)cc2)cc1 [Example 32, 4-Difluoromethyl-1-(4-hydroxyphenyl)-2-(4-methoxyphenyl)-1H-imidazole] | 143 to 145 | – | – | –
9 | CCOC(=O)c1cn(-c2ccc(OC)cc2)c(-c2ccc(OC)cc2)n1 [Example 9, 4-Ethoxycarbonyl-1-(4-methoxyphenyl)-2-(4-methoxyphenyl)-1H-imidazole] | 142 to 143 | – | – | –
10 | CCN(C)C(=O)c1cn(-c2ccc(OCc3ccccc3)cc2)c(-c2ccc(OC)cc2)n1 [Example 46, 1-(4-Benzyloxyphenyl)-4-(N-ethyl-N-methylcarbamoyl)-2-(4-methoxyphenyl)-1H-imidazole] | 118 to 119 | – | – | –
11 | COc1ccc(-n2cc(C(F)(F)F)nc2-c2ccc(OC)nc2)cc1 [Example 3-2, 1-(4-Methoxyphenyl)-2-(2-methoxy-5-pyridinyl)-4-trifluoromethyl-1H-imidazole] | 90 to 92 | < 0.01 | ≥ 0.1 | >1.5
12 | COc1ccc(-c2nc(C#N)cn2-c2ccc(OC)cc2)cc1 [Example 12-2, 4-Cyano-1-(4-methoxyphenyl)-2-(4-methoxyphenyl)-1H-imidazole] | 132 to 134 | – | – | –
13 | COc1ccc(-c2nc(C)cn2-c2ccc(OC)cc2)cc1.Cl [Example 21, 1-(4-Methoxyphenyl)-2-(4-methoxyphenyl)-4-methyl-1H-imidazole hydrochloride] | 203 to 205 | < 0.01 | ≥ 0.1 | –
14 | COc1ccc(-c2nc(C(N)=O)cn2-c2ccc(OC)cc2)cc1 [Example 10, 4-Carbamoyl-1-(4-methoxyphenyl)-2-(4-methoxyphenyl)-1H-imidazole] | 167 to 169 | – | – | –
15 | CCN(CC)C(=O)c1cn(-c2ccc(OCc3ccccc3)cc2)c(-c2ccc(OC)cc2)n1 [Example 48, 1-(4-Benzyloxyphenyl)-4-(N,N-diethylcarbamoyl)-2-(4-methoxyphenyl)-1H-imidazole] | 146 to 147 | – | – | –
16 | CCC(=O)c1cn(-c2ccc(O)cc2)c(-c2ccc(OC)nc2)n1 [Example 56, 4-Ethylcarbonyl-1-(4-hydroxyphenyl)-2-(2-methoxy-5-pyridinyl)-1H-imidazole] | 221 to 223 | – | – | –
17 | CCC(=O)c1cn(-c2ccc(OCc3ccccc3)cc2)c(-c2ccc(OC)nc2)n1 [Example 55, 1-(4-Benzyloxyphenyl)-4-ethylcarbonyl-2-(2-methoxy-5-pyridinyl)-1H-imidazole] | 126 to 128 | – | – | –
18 | CCOC(=O)c1cn(-c2ccc(OCc3ccccc3)cc2)c(-c2ccc(OC)nc2)n1 [Example 35-2, 1-(4-Benzyloxyphenyl)-4-ethoxycarbonyl-2-(2-methoxy-5-pyridinyl)-1H-imidazole] | 109 to 110 | – | – | –
19 | CCOC(=O)c1ccc(-n2cc(C#N)nc2-c2ccc(OC)cc2)cc1 [Example 25-2, 4-Cyano-1-(4-ethoxycarbonylphenyl)-2-(4-methoxyphenyl)-1H-imidazole] | 139 to 140 | – | – | –
20 | COc1ccc(-c2nc(C(F)(F)F)cn2-c2ccc(C#N)cc2)cn1 [Example 8, 1-(4-Cyanophenyl)-2-(2-methoxy-5-pyridinyl)-4-trifluoromethyl-1H-imidazole] | 155 to 158 | < 0.01 | ≥ 0.1 | –
21 | COc1ccc(-c2nc(C(C)=O)cn2-c2ccc(OC)cc2)cc1 [Example 28, 4-Acetyl-1-(4-methoxyphenyl)-2-(4-methoxyphenyl)-1H-imidazole] | 116 to 117 | – | – | >1.5
22 | COc1ccc(-c2nc(C(F)(F)F)cn2-c2ccc(O)cc2)cn1 [Example 6, 1-(4-Hydroxyphenyl)-2-(2-methoxy-5-pyridinyl)-4-trifluoromethyl-1H-imidazole] | 198 to 200 | – | – | –
23 | COc1ccc(-c2nc(C(F)F)cn2-c2ccc(OC)cc2)cc1.Cl [Example 17, 4-Difluoromethyl-1-(4-methoxyphenyl)-2-(4-methoxyphenyl)-1H-imidazole hydrochloride] | 150 to 153 | < 0.01 | ≥ 0.1 | –
24 | COc1ccc(-c2nc(C(F)(F)F)cn2-c2ccc(Br)cc2)cc1 [Example 1-2, 1-(4-Bromophenyl)-2-(4-methoxyphenyl)-4-trifluoromethyl-1H-imidazole] | 140 to 141 | < 0.01 | ≥ 0.1 | –
25 | COc1ccc(-c2nc(C(=O)C(C)C)cn2-c2ccc(OCc3ccccc3)cc2)cn1 [Example 57, 1-(4-Benzyloxyphenyl)-4-isopropylcarbonyl-2-(2-methoxy-5-pyridinyl)-1H-imidazole] | 118 to 120 | – | – | –
26 | COc1ccc(-n2cc(C#N)nc2-c2ccc(OC)nc2)cc1 [Example 4-2, 4-Cyano-1-(4-methoxyphenyl)-2-(2-methoxy-5-pyridinyl)-1H-imidazole] | 130 to 132 | < 0.01 | ≥ 0.1 | –
27 | COc1ccc(-c2nc(C(=O)C(C)C)cn2-c2ccc(O)cc2)cn1 [Example 58, 4-Isopropylcarbonyl-1-(4-hydroxyphenyl)-2-(2-methoxy-5-pyridinyl)-1H-imidazole] | 185 to 187 | – | – | –

From US20070043084A1, “1,2-Diarylimidazoles useful as inhibitors of cox” (Astellas Pharma Inc., priority 2003, published 2007)
